Laboratory results published in article PMC7278358, “Kinetic parameters of human aspartate/asparagine–β-hydroxylase suggest that it has a possible function in oxygen sensing” (The Journal of Biological Chemistry, 2020).
Several values for one entry are separate records, joined by “and”; a condition that tells them apart may be missing. Identical values can stand only once. Like-named read-outs stand apart in the source and are kept apart here.

What was measured:
[1] = system: human phytanoyl-CoA hydroxylase; details: read-out: Km app(O2); cited from earlier work
Text: (§1) At higher partial pressures of O2, the standard deviation among independent quadruplicates increased slightly because of efficient peptide hydroxylation requiring short reaction times; however, maximum velocities (vmax^app) were still similar within experimental error, indicating good data quality and reproducibility (Fig. S7). The AspH Km^app for O2 is high compared with the values reported for most oth ...

KDM4C = details: read-out: Km app(O2); cited from earlier work
Text: as §1

KDM6A = details: read-out: Km app(O2); cited from earlier work
Text: as §1

PHD2 = details: same experimental setup, cited from earlier work; for Km: read-out: Km app for O2
Text: as §1

KDM4E = details: read-out: Km app(O2); cited from earlier work
Text: as §1

FIH = details: peptide substrate HIF-1α CAD35mer, same experimental setup, cited from earlier work
Text: as §1

[2] = system: collagen prolyl 4-hydroxylases; details: read-out: Km app(O2); cited from earlier work
Text: as §1

KDM4A = details: cited from earlier work
Text: as §1

human His6–AspH315–758 = target: T1, human His6–AspH315–758 (Homo sapiens, UniProt Q12797); experiment: AspH O2 dependence (variable O2 partial pressures, SPE-MS); assay type: biochemical; details: n = 4
T1 construct: a pET-28a(+) vector encoding for N-terminal His6-tagged AspH315–758 (His6–AspH315–758) was transformed into Escherichia coli BL21 (DE3) cells; made in house; host or cells: Escherichia coli BL21 (DE3)
T1 sequence (Q12797 315-758): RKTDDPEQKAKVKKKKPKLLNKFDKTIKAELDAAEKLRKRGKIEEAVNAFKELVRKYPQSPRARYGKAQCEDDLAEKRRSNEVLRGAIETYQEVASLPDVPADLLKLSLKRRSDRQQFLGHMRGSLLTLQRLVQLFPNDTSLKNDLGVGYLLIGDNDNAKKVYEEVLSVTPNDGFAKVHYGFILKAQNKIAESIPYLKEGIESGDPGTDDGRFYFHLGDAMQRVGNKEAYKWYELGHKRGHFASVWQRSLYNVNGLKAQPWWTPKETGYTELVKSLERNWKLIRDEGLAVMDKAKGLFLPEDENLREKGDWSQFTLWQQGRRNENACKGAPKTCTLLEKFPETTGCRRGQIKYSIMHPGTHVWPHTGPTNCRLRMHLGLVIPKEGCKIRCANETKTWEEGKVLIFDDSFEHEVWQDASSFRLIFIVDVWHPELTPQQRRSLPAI
Experimental: For determining vmax^app and Km^app of AspH for O2, 2.2 μM hFX–CP101–119 (65 μl) in 50 mM HEPES (pH 7.5) were exposed in a gas-tight glass vial to variable O2 concentrations (in nitrogen; Fig. S7) using a mass flow controller ([32]). After equilibrating the atmosphere, co-factor and co-substrates were added by syringe (1.5 μl of 4.7 mM LAA and 0.99 mM 2OG in MQ-grade water and 1.5 μl of 0.99 mM FAS in MQ-grade water) followed by 2.0 μl of 3.5 μM His6–AspH315–758 in 50 mM HEPES (pH 7.5) at 20 °C. The enzyme reaction was stopped after the indicated reaction time by the addition of 15% (v/v) aqueous formic acid (4 μl) and analyzed by SPE-MS using the configurations given above; the experiments were performed in independent quadruplicates. The data were analyzed as described, and the slopes of the initial reaction rates (Fig. S7) were fitted to a Michaelis–Menten plot using nonlinear regression (GraphPad Prism 5).

[3] = O2 varied, hFX–CP101–119 substrate

O=O [O2]
Km [1]: 93 ± 43 µM | Km (KDM4C): 158 ± 13 µM | Km (KDM6A): 180 ± 40 µM | kcat (PHD2; peptide substrate HIF-1α CODD): 0.06 ± 0.01 s⁻¹ | Km (PHD2; peptide substrate HIF-1α CODD): 460 ± 30 µM | kcat (PHD2; peptide substrate HIF-1α NODD): 0.028 ± 0.001 s⁻¹ | Km (PHD2; peptide substrate HIF-1α NODD): > 450 µM | Km (KDM4E): 197 ± 16 µM | kcat (FIH): 0.56 ± 0.04 s⁻¹ | Km (FIH; read-out: Km app for O2): ~110 µM and 110 µM | Km [2]: 40 µM | Km (KDM4A; peptide substrate H3_1–15K9me3, same experimental setup, read-out: Km app for O2): ~173 µM and 173 µM | Km (KDM4A; read-out: Km app(O2)): 57 ± 10 µM | Km app of AspH for O2 [%] (human His6–AspH315–758; O2 in nitrogen, 100 μM LAA, 20 μM 2OG, 20 μM FAS, 2.0 μM hFX-CP101-119, 0.1 μM His6-AspH315-758, pH 7.5, 20 °C): 47.2 ± 8.1 % O2 | vmax app (human His6–AspH315–758; O2 varied (in nitrogen), 100 μM LAA, 20 μM 2OG, 20 μM FAS, 2.0 μM hFX–CP101–119, 0.1 μM His6–AspH315–758, 50 mM HEPES pH 7.5, 20 °C): 0.0207 ± 0.0018 µM/s | Km (human His6–AspH315–758; O2 varied (in nitrogen), 100 μM LAA, 20 μM 2OG, 20 μM FAS, 2.0 μM hFX–CP101–119, 0.1 μM His6–AspH315–758, 50 mM HEPES pH 7.5, 20 °C, O2 % converted by y[μM] = 9.026·x[%], read-out: Km app for O2): ~426 µM and 426 µM | kcat (human His6–AspH315–758; [3]): 0.23 ± 0.04 s⁻¹ | kcat/Km (human His6–AspH315–758; [3]): 540 ± 130 M⁻¹ s⁻¹
